Laboratory results: patent publication US11946094B2, “Combination therapies and methods of use thereof” (Augusta University Research Institute, Inc., priority 2017, dated 2024)
Entries after “also recorded” stand apart in the source; their conditions may differ.

Tested on: OVCAR-8 cells
Assay: Drug-siRNA combination screen: 346-compound anticancer library at 100 nM, CCK-8 viability
Conditions: not given

Molecule	Score (sum of observed SD values for 18 genes) [SD]
CNC(=O)c1ccc(N2C(=S)N(c3ccc(C#N)c(C(F)(F)F)c3)C(=O)C2(C)C)cc1F [Enzalutamid]	−1.24

Same assay, conditions: OVCAR-8; drug 100 nM plus siRNA knockdown of each of 18 genes; distance VAB−VA×VB in SD; single gene contributes at most +5 / −5; negative = synergy, positive = antagonism

Molecule	Score (sum of observed SD values for 18 genes) [SD]
CC[C@@H](C(=O)[C@@H](C)[C@@H](O)[C@H](C)[C@@H]1O[C@@H]([C@@H](CC)C(=O)O)CC[C@@H]1C)[C@H]1O[C@]2(C=C[C@@H](O)[C@]3(CC[C@@](C)([C@H]4CC[C@](O)(CC)[C@H](C)O4)O3)O2)[C@H](C)C[C@@H]1C [Salinomycin]	−21.61
Cc1cnc(NC(=O)Nc2cc(Br)c(C)cc2OC[C@@H]2CNCCO2)cn1 [LY2603618]	-52.09
Cn1c(=O)n(-c2ccc(C(C)(C)C#N)cc2)c2c3cc(-c4cnc5ccccc5c4)ccc3ncc21 [BEZ235]	−35.65
CCN[C@H]1C[C@H](C)S(=O)(=O)c2sc(S(N)(=O)=O)cc21.Cl [Dorzolamide HCI]	9.66
OCCn1cc(-c2ccc3c(c2)CC/C3=N\O)c(-c2ccncc2)n1 [GDC - 0879]	23.19
CC[C@@H]1C(=O)N(C)c2cnc(Nc3ccc(C(=O)N[C@H]4CC[C@H](N5CCN(CC6CC6)CC5)CC4)cc3OC)nc2N1C(C)C [Volasertib]	10.79
CC1(C)CNc2cc(NC(=O)c3cccnc3NCc3ccncc3)ccc21 [Motesanib Diphosphate]	−12.16
CNC(=O)c1cc(Oc2ccc(NC(=O)Nc3ccc(Cl)c(C(F)(F)F)c3)c(F)c2)ccn1 [Regorafinib]	3.75
CC(C)C[C@H](NC(=O)[C@@H](O)[C@H](N)Cc1ccccc1)C(=O)O [Ubinimex]	−17.36
Cc1ccc(F)c(NC(=O)Nc2ccc(-c3cccc4[nH]nc(N)c34)cc2)c1 [Linifanib]	−25.28
O=c1c(O)c(-c2ccc(O)c(O)c2)oc2cc(O)cc(O)c12 [Quercetin]	−5.63
CC(=O)OCC(=O)[C@@]1(O)[C@H](C)C[C@H]2[C@@H]3CCC4=CC(=O)C=C[C@]4(C)[C@@]3(F)[C@@H](O)C[C@@]21C [Dexamethasone Acetate]	6.26
N#CCNC(=O)c1ccc(-c2ccnc(Nc3ccc(N4CCOCC4)cc3)n2)cc1 [Momelotenib]	−0.52
O=C(Nc1c[nH]nc1-c1nc2ccc(CN3CCOCC3)cc2[nH]1)NC1CC1 [AT9283]	12.54
C[C@@H]1CCN(C(=O)CC#N)C[C@@H]1N(C)c1ncnc2[nH]ccc12 [Tofacitinib]	−13.15
CO[C@H]1/C=C\C=C(/C)C(=O)NC2=CC(=O)C(NCCN(C)C)=C(C[C@@H](C)C[C@H](OC)[C@H](O)[C@@H](C)/C=C(\C)[C@@H]1OC(N)=O)C2=O.Cl [17 - DMAG HCI]	19.7
CCCCc1nc2cc(/C=C/C(=O)NO)ccc2n1CCN(CC)CC [Pracinostat]	−43.48
Oc1nc(-c2ccc(C(F)(F)F)cc2)nc2c1CSCC2 [XAV-939]	−29.25
Medroxyprogesterone	−35.82
CC#C[C@]1(O)CC[C@H]2[C@@H]3CCC4=CC(=O)CCC4=C3[C@@H](c3ccc(N(C)C)cc3)C[C@@]21C [Mifepristone]	−22.75
Cc1nc2ccc(CN(C)c3ccc(C(=O)N[C@@H](CCC(=O)O)C(=O)O)s3)cc2c(=O)[nH]1 [Raltitrexed]	44.53
CN[C@@H](C)C(=O)N[C@H]1CN(C(=O)CC(C)C)CC[C@H]2CC[C@@H](C(=O)NC(c3ccccc3)c3ccccc3)N2C1=O [AT406]	−38.03
Cc1ccc(S(=O)(=O)/C=C/C#N)cc1 [BAY 11-7082]	−5.7
Cc1c(NC(=O)OC[C@@H]2COCCN2)cn2ncnc(Nc3ccc4c(cnn4Cc4cccc(F)c4)c3)c12 [BMS-599626]	−40.89
COc1c(C)cnc(Cn2cnc3c(Cl)nc(N)nc32)c1C [BIIB021]	−33.01
COC(=O)c1ccc2c(c1)NC(=O)/C2=C(\Nc1ccc(N(C)C(=O)CN2CCN(C)CC2)cc1)c1ccccc1 [Nintedanib]	−36.11
COc1ccc(COc2cc3oc(=O)c4cc(C(C)O)ccc4c3cc2OC)cc1 (stereo not drawn) [Palomid 529]	11.53

Molecule	Score (sum of observed SD values for 18 genes) [SD]
CS(=O)(=O)N1CCN(Cc2cc3nc(-c4cccc5[nH]ncc45)nc(N4CCOCC4)c3s2)CC1 [GDC-0941]	-58.02
Nc1ccc(C(=O)Nc2cccc(-c3nc(N4CCOCC4)c4oc5ncccc5c4n3)c2)cn1 [YM201636]	−32.89
CCN(CC)CCCCNc1ncc2cc(-c3cc(OC)cc(OC)c3)c(NC(=O)NC(C)(C)C)nc2n1 [PD173074]	−46.63
O=C(NC1CCNCC1)c1n[nH]cc1NC(=O)c1c(Cl)cccc1Cl [AT7519]	−24.02
C/C(=C\c1csc(C)n1)[C@@H]1C[C@@H]2O[C@]2(C)CCC[C@H](C)[C@H](O)[C@@H](C)C(=O)C(C)(C)[C@@H](O)CC(=O)O1 [Epothilone B]	17.57
COc1cc2nccc(Oc3ccc(NC(=O)NC4CC4)c(Cl)c3)c2cc1C(N)=O [Lenvatinib]	−27.5
C[C@@H](Oc1cc(-n2cnc3ccc(CN4CCN(C)CC4)cc32)sc1C(N)=O)c1ccccc1C(F)(F)F [GSK461364]	4.65
CC1(COc2ccc3c(c2)ncn3-c2ccc3cccc(N4CCC(N)CC4)c3n2)COC1 [Crenolanib]	−18.09
CC1=C2C[C@H]3[C@@H](CC=C4C[C@@H](O)CC[C@@]43C)[C@@H]2CC[C@]12O[C@@H]1C[C@H](C)CN[C@H]1[C@H]2C [Cyclopamine]	3.03
O=C(/C=C/c1cccnc1)NCCCCC1CCN(C(=O)c2ccccc2)CC1 [APO866]	7.8
OCCn1cc(-c2cnc3nnn(Cc4ccc5ncccc5c4)c3n2)cn1 [PF-04217903]	−6.89
C[C@]12C=CC(=O)C=C1CC[C@H]1[C@@H]3C[C@@H](O)[C@](O)(C(=O)CO)[C@@]3(C)C[C@H](O)[C@@]12F [Triamcinolone]	−26.66
Cc1ccc(NC(=O)c2ccc(CN3CCN(C)CC3)cc2)cc1Nc1nc(-c2cccnc2)cs1 [Masitinib]	−4.23
Cl.Nc1ccn([C@@H]2O[C@H](CO)[C@@H](O)C2(F)F)c(=O)n1 [Gemcitibine HCI]	35.88
COc1c(C)c2c(c(O)c1C/C=C(\C)CCC(=O)O)C(=O)OC2 [Mycophenolic acid]	−20.87
CC(C)OC(=O)C1=CN(C(=O)c2ccc(F)c(F)c2)CC(C)(C)c2c1[nH]c1ccccc21 [WAY-362450]	−29.97
COc1cc2ncnc(-n3nc(-c4ccccn4)nc3N)c2cc1OC [CP-466722]	2.79
C=CC(=O)Nc1cccc(Oc2nc(Nc3ccc(N4CCN(C)CC4)cc3OC)ncc2Cl)c1 [WZ4002]	−41.61
CCCCCCNC(=O)n1cc(F)c(=O)[nH]c1=O [Carmofur]	−18.23
CCOC(=O)C1=C[C@]2(CC)CCCN3CCc4c(n1c1ccccc41)[C@@H]32 [Vinpocetine]	−1.42
C[S+]([O-])c1ccc(-c2nc(-c3ccc(F)cc3)c(-c3ccncc3)[nH]2)cc1 (stereo not drawn) [SB 203580]	−40.85
CCN(CC)C(=S)SSC(=S)N(CC)CC [Disulfiram]	37.83
C=C(c1ccc(C(=O)O)cc1)c1cc2c(cc1C)C(C)(C)CCC2(C)C [Bexarotene]	−1.35
c1ccc2c(-c3cnn4cc(-c5ccc(N6CCNCC6)cc5)cnc34)ccnc2c1 [LDN193189]	−28.37
Nc1nc(=O)c2c([nH]1)NCC(CNc1ccc(C(=O)N[C@@H](CCC(=O)[O-])C(=O)[O-])cc1)N2C=O.[Ca+2] (stereo partly drawn) [Leucovorin Calcium]	1.29
NC(=O)Nc1cc(-c2cccc(F)c2)sc1C(=O)N[C@H]1CCCNC1 [AZD7762]	−43.68

Same assay, conditions: OVCAR-8; drug 100 nM; panel of 18 siRNA knockdowns

Molecule	synergy / antagonism of drug with gene knockdowns, in words
Cc1cnc(NC(=O)Nc2cc(Br)c(C)cc2OC[C@@H]2CNCCO2)cn1 [LY2603618]	high level of synergism
CCCCc1nc2cc(/C=C/C(=O)NO)ccc2n1CCN(CC)CC [Pracinostat]	mostly synergistic
Cc1c(NC(=O)OC[C@@H]2COCCN2)cn2ncnc(Nc3ccc4c(cnn4Cc4cccc(F)c4)c3)c12 [BMS-599626]	significant synergy with nine or more genes
COc1c(C)cnc(Cn2cnc3c(Cl)nc(N)nc32)c1C [BIIB021]	Frequently among the top synergizing pairs
CS(=O)(=O)N1CCN(Cc2cc3nc(-c4cccc5[nH]ncc45)nc(N4CCOCC4)c3s2)CC1 [GDC-0941]	synergy to the vast majority of genes
CCN(CC)CCCCNc1ncc2cc(-c3cc(OC)cc(OC)c3)c(NC(=O)NC(C)(C)C)nc2n1 [PD173074]	significant synergy with nine or more genes
NC(=O)Nc1cc(-c2cccc(F)c2)sc1C(=O)N[C@H]1CCCNC1 [AZD7762]	Frequently among the top synergizing pairs; also recorded: high level of synergism

Same assay, conditions: OVCAR-8; drug 100 nM; siRNA knockdown

Molecule	number of genes (of 18) whose knockdown synergizes with the drug [genes]
CCCCc1nc2cc(/C=C/C(=O)NO)ccc2n1CCN(CC)CC [Pracinostat]	11
C[S+]([O-])c1ccc(-c2nc(-c3ccc(F)cc3)c(-c3ccncc3)[nH]2)cc1 (stereo not drawn) [SB 203580]	9
